For series [1], the system named is Spodoptera littoralis (Egyptian cotton leaf worm). Nature of the series: Example B1: Spodoptera littoralis larvicide, feeding/residual contact, preventive (cotton leaf discs). To be noted: foliar, 72 h, L1 larvae, 3 days after treatment, read-out: activity (mortality, repellent effect, feeding behaviour, growth regulation). Format: in vivo. The source says:
Example B1: Activity Against Spodoptera littoralis (Egyptian Cotton Leaf Worm)
(§1) (Larvicide, Feeding/Residual Contact Activity, Preventive)
Cotton leaf discs were placed on agar in a 24-well microtiter plate and sprayed with test solutions. After drying, the leaf discs were infested with 5 L1 larvae. The samples were checked for mortality, repellent effect, feeding behaviour, and growth regulation 3 days after treatment (DAT).

The subject of series [2] is Plutella xylostella (diamond back moth). Nature of the series: Example B3: Plutella xylostella larvicide, feeding/residual contact, preventive (artificial diet). Conditions: 120 h, L2 larvae, incubation 5 days, read-out: activity (larval mortality, antifeedant, growth regulation). Format: in vivo. The method, then: Example B3: Activity Against Plutella xylostella (Diamond Back Moth)
as §1
24-well microtiter plate (MTP) with artificial diet was treated with test solutions by pipetting. After drying, the MTPs were infested with L2 larvae (10-15 per well). After an incubation period of 5 days, samples were checked for larval mortality, antifeedant and growth regulation.

The test system of series [3] is Diabrotica balteata (corn root worm). Briefly: Example B4: Diabrotica balteata larvae L2 on maize sprouts, feeding/contact, preventative. Format: in vivo. To be noted: 120 h, incubation 5 days, read-out: activity (larval mortality, growth regulation). The method, then:
Example B4: Activity Against Diabrotica Balteata (Corn Root Worm)
(Larvae L2 on Maize Sprouts, Feeding/Contact, Preventative)
Maize sprouts, placed on an agar layer in 24 well micro titer plates were treated with test solutions by spraying. After drying, the MTPs were infested with L2 larvae (6-10 per well). After an incubation period of 5 days, samples were checked for larval mortality and growth regulation.

Series [4] has as its system Myzus persicae (green peach aphid). Nature of the series: Example B5: Myzus persicae feeding/residual contact, preventive, mixed population (sunflower leaf discs). Type of series: in vivo. Conditions: foliar, 144 h, 6 DAT, read-out: activity (mortality and special effects). The method, then:
Example B5: Activity Against Myzus persicae (Green Peach Aphid)
(Feeding/Residual Contact Activity, Preventive), Mixed Population
Sunflower leaf discs were placed on agar in a 24-well microtiter plate and sprayed with test solutions. After drying, the leaf discs were infested with an aphid population of mixed ages. After an incubation period of 6 DAT, samples were checked for mortality and special effects (e.g. phytotoxicity).

The subject of series [5] is Euschistus heros (neotropical brown stink bug). Briefly: Example B8: Euschistus heros on sprayed soybean leaf. Type of series: in vivo. To be noted: 120 h, N-2 nymphs, 5 days after infestation. Here is the method:
Example B8: Activity Against Euschistus heros (Neotropical Brown Stink Bug)
Soybean leaf on agar in 24-well microtiter plates were sprayed with aqueous test solutions prepared from 10′000 ppm DMSO stock solutions. After drying the leaf were infested with N-2 nymphs. The samples were assessed for mortality 5 days after infestation.

Series [6] concerns Myzus persicae (green peach aphid). Nature of the series: Example B7: Myzus persicae systemic/feeding activity, curative, mixed population (pea seedlings). To be noted: 144 h, systemic, 6 days after introduction, read-out: activity (mortality and special effects on the plant). Type of series: in vivo. The text has this:
Example B7: Activity Against Myzus persicae (Green Peach Aphid)
(Systemic/Feeding Activity, Curative), Mixed Population
Roots of pea seedlings, infested with an aphid population of mixed ages, were placed directly in the test solutions. 6 days after introduction, samples were checked for mortality and special effects on the plant.

The subject of series [7] is Spodoptera littoralis (Egyptian cotton leaf worm). Nature of the series: Example B2: Spodoptera littoralis systemic activity (lettuce on agar). Type of series: in vivo. To be noted: 120 h, 5 days after infestation, read-out: activity (mortality, repellent effect, feeding behavior, growth regulation). The source says: Example B2: Activity Against Spodoptera littoralis (Egyptian Cotton Leaf Worm)
Test compounds were applied by pipette into 24 well plates and mixed with agar. Lettuce seeds were placed on the agar and the multi well plate is closed by another plate which contains also agar. After 7 days the roots have absorbed the compound and the lettuce has grown into the lid plate. The lettuce leaves were now cut off into the lid plate. Spodoptera eggs were pipetted through a plastic stencil on a humid gel blotting paper and the plate closed with it. The samples are checked for mortality, repellent effect, feeding behavior, and growth regulation 5 days after infestation.

Series [8] relates to Myzus persicae (green peach aphid). Nature of the series: Example B6: Myzus persicae feeding activity sachet test, mixed population. Type of series: in vivo. Conditions: 120 h, 5 days after infestation. The text has this: Example B6: Activity Against Myzus persicae (Green Peach Aphid)
(Feeding Activity Sachet Test), Mixed Population
Test compounds were applied by pipette into 24 well plates and mixed with Sucrose solution. The plates were closed with a stretched Parafilm. A plastic stencil with 24 holes is placed onto the plate and infested pea seedlings were placed directly on the Parafilm. The infested plate is closed with a gel blotting paper and another plastic stencil and then turned upside down. 5 days after infestation the samples were checked on mortality. Application rate: 12.5 ppm.

The test system of series [9] is Anopheles stephensi (Indian malaria mosquito). Nature of the series: Example B10: Anopheles stephensi adult females on treated tissue culture plates. Type of series: in vivo. Conditions: application rate 200 ppm in ethanol; after 48 h. Here is the method: Example B10: Activity Against Anopheles stephensi (Indian Malaria Mosquito)
Test solutions, at an application rate of 200 ppm in ethanol, were applied to 12-well tissue culture plates. Once the deposits were dry, five, two to five day old adult female Anopheles stephensi were added to each well, and sustained with a 10% sucrose solution in a cotton wool plug. Assessment of knockdown was made one hour after introduction, and mortality was assessed at 24 and 48 hours after introduction.

Where only a bound is given, the exact number is not on record here.

For orientation: mortality means the share of the test organisms that died. Take `CC[S+]([O-])c1cc(C(F)(F)F)cnc1-c1cn2nc(C(F)(F)C(F)(F)F)sc2n1` (stereo not shown) [Compound P7]: the mortality at 400 ppm in [1], in series [2], in [3], in series [4] and in [5] was above 80% each time.
As for `CCS(=O)(=O)c1cccnc1-c1nc2sc(C(F)(F)F)nn2c1C` [Compound P5], the mortality at 400 ppm in series [1], in [2] and in series [4] was above 80% throughout. For the same compound, the mortality at 24 ppm in series [6] was at least 80%.
With `CCS(=O)(=O)c1cc(C(F)(F)F)cnc1-c1cn2nc(C(F)(F)C(F)(F)F)sc2n1` [Compound P8], the mortality at 400 ppm in [1], in series [2], in series [3], in [4] and in series [5] was above 80% each time. In addition, the mortality at 12.5 ppm in [7] was at least 80%.
Consider `CCS(=O)(=O)c1cc(C(F)(F)F)cnc1-c1cn2nc(C(F)(F)F)sc2n1` [Compound P4], for which the mortality at 400 ppm in series [1], in series [2] and in series [3] was above 80% each time.
As a reminder, the melting point is the temperature, or range, at which the solid turns liquid. For the compound `CCSc1cc(C(F)(F)F)cnc1-c1cn2nc(C(F)(F)C(F)(F)F)sc2n1` [Compound P6], the melting point lay within 110 to 112 °C.
Turning to `CC[S+]([O-])c1cc(C(F)(F)F)cnc1-c1cn2cc(C(F)(F)F)sc2n1` (stereo not shown) [Compound P10], in series [1], the mortality at 400 ppm is above 80%.
As for `CCS(=O)(=O)c1cc(C(F)(F)F)cnc1-c1nc2sc(C(F)(F)F)nn2c1C` [Compound P3, 6-[3-ethylsulfonyl-5-(trifluoromethyl)-2-pyridyl]-5-methyl-2-(trifluoromethyl)imidazo[2,1-b][1,3,4]thiadiazole], the mortality at 400 ppm in series [1], in [2], in series [3] and in [4] was above 80% each time. Besides, in series [8], the mortality at 12.5 ppm is at least 80%.
For the compound `CCS(=O)(=O)c1cc(C(F)(F)F)cnc1-c1cn2cc(C(F)(F)F)sc2n1` [Compound P9, 6-[3-ethylsulfonyl-5-(trifluoromethyl)-2-pyridyl]-2-(trifluoromethyl)imidazo[2,1-b]thiazole], the mortality at 400 ppm in [1], in series [2], in series [3] and in series [4] was above 80% each time.
Take `CCS(=O)(=O)c1cccnc1-c1cn2nc(C(F)(F)F)sc2n1` [Compound P2, 6-(3-ethylsulfonyl-2-pyridyl)-2-(trifluoromethyl)imidazo[2,1-b][1,3,4]thiadiazole]: the mortality at 400 ppm in series [1], in series [2], in [3] and in series [4] was above 80% each time. Moreover, the mortality at 12.5 ppm in series [7] and in series [8] was at least 80% each time. Further, in series [6], the mortality at 24 ppm is at least 80%. Also, the “control of Anopheles stephensi” value in series [9] was “at least 80%”.

The record behind these values is patent US9706776B2, “Pesticidally active substituted 5,5-bicyclic heterocycles with sulphur containing substituents” (Syngenta Participations AG, priority 2013, dated 2017).
